According to patent publication US20240398822A1, “METHODS AND COMPOSITIONS FOR TREATING AND MANAGING ALZHEIMER'S DISEASE” (Pharmatrophix, Inc., priority 2021, published 2024):

Columns and labels:
[1] = tested on: healthy elderly volunteers; assay: Phase I (1b) safety and tolerability, 600 mg b.i.d. for 10 days
Description: Trial specific stopping rules were set to protect the trial subjects. Dosing would have been stopped for all subjects and the trial terminated if any of the stopping rules had occurred.
15 healthy adults were screened within three weeks prior to the baseline visit. Following 5 screening failures, 10 healthy adults, 5 aged 18-64 years and 5 aged 65-84 years were enrolled.
(§2) A phase 1b studied was conducted in 10 elderly normal subjects for the purpose of obtaining plasma and CSF coordinated drug levels and to further assess safety at a dose of 600 mg bid over a 10-day period. The study was double-blinded and placebo controlled with 8 subjects receiving drug.

[2] = Stability study of capsules filled with 200 mg in blister strips; format: physicochemical; settings: 200 mg (free base weight) capsules in PVC-PE-PVdC/Alu, ambient 15-25° C./20-60% RH
[3] = tested on: patients with mild to moderate Alzheimer's disease; assay: Phase IIa cognitive testing (ADAS-cog, MMSE); format: in vivo, human
Description: Exploratory outcome evaluations involved the assessment of cognitive and clinical function (Table 1). […] Items from the Neurological Testing Battery (NTB), together with the ADAS-Cog 13, Spatial Navigation Test (AMUNET) were performed at Baseline, Week 12 and Week 26 (Visits 2, 4 and 5). While the MMSE was used primarily as a screening and baseline disease staging tool, its repeated administration at Week 26 provided an additional exploratory cognitive outcome measure. The Geriatric Depression Scale (GDS) was assessed at each Visit (Screening, Baseline, Week 4, 12, 26: Visits 1-5) and the Clinical Global Impression test (CGI) with Severity was assessed at Screening (Visit 1) and then the Improvement was subsequently assessed at Weeks 12 and 26 (Visits 4 and 5). For each test, whether categorical or numeric, all raw scores were considered interval in nature. The change from Screening (Week −8) or Baseline (Week 0) was therefore be derived for each patient. Actual values at each Visit and Changes from Screening/Baseline were summarized.
Alzheimer's Disease Assessment Scale—13 items (total score=85) is used as a parameter for exploratory outcome analysis. ADAS-cog is a psychometric instrument designed to evaluate the severity of cognitive and non-cognitive behavioral dysfunctions characteristic of people with AD. The cognitive portion assesses memory, language and praxis functions. Most items are rated on a scale of 0 to 5, where 0 indicates no impairment and 1 to 5 indicates very mild (1), mild (2), moderate (3), moderately severe (4) or severe impairment (5) respectively. Other items are rated on the presence or absence of a characteristic number of errors or severity of errors. The total scores from the ADAS-cog sub-scales range from 0 (no impairment) to 85 (errors in all sub-tests).
A positive (i.e. increasing) change of the score indicates cognitive worsening. In a meta-analysis model of 52 Alzheimer's Disease trials involving 19,972 mild-moderate disease subjects, a spontaneous decline in performance corresponding to an increase in ADAS-cog score of 5.5 points over one year, pointing to an expected average increase in score of 2.75 points over a 6-month period.
ADAS-Cog was assessed at Visits 2, 4 and 5, as well as at the early discontinuation Visit, if applicable.
While the MMSE was used primarily as a screening and baseline disease-staging tool, its administration at Week 26 provided an additional exploratory cognitive outcome measure.
Mini Mental Status Exam (MMSE). The MMSE can be used by a physician to evaluate a patient's condition over the course of administration. A baseline value prior to administration of a salt of Formula (II) can serve as a basis for baseline disease stage and also for the assessment of the effect of treatment on slowing loss of cognitive function. The expected decline in MMSE over a six month period generally ranges 1-3 points out of the total of 30 points possible in the MMSE test.

CSF biomarkers = assay: Phase IIa CSF biomarkers, whole panel; format: in vivo, human
From the text: (§1) CSF samples were obtained at screening Visit and final Visit via lumbar puncture to determine levels of tau, p-tau, Aβ40, Aβ42 and AChE activity as an initial set of CSF biomarkers. Aliquots of CSF were made available for emerging CSF biomarker methods such as measurement of additional biomarkers including neurofilaments light chain, neurogranin, SNAP-25, synaptotagmin, YKL-40, TREM2, tau oligomers and for measurement of drug level in selected patients based on the time period between last dose of drug and CSF sampling (FIG. 25 and FIG. 58).
Baseline CSF samples are obtained prior to administration via lumbar puncture. These samples are used to determine levels of tau, p-tau, Aβ40, Aβ42, AChE, neurofilament light chain, SNAP-25, synaptotagmin-1, neurogranin, sTREM, and YKL-40. Aliquots of CSF are also made available for emerging CSF biomarker methods such as measurement of tau oligomers and for measurement of drug level in selected patients based on time period between last dose of the salt of Formula (II) and CSF sampling. […] Many of these biomarkers can also be measured in blood or plasma. The change in values over the time period from pre-treatment to post-treatment are of particular importance. […]

YKL-40 = assay: Phase IIa CSF glial biomarker YKL-40; format: in vivo, human
From the text: as §1
Baseline CSF samples are obtained prior to administration via lumbar puncture. These samples are used to determine levels of tau, p-tau, Aβ40, Aβ42, AChE, neurofilament light chain, SNAP-25, synaptotagmin-1, neurogranin, sTREM, and YKL-40. Aliquots of CSF are also made available for emerging CSF biomarker methods such as measurement of tau oligomers and for measurement of drug level in selected patients based on time period between last dose of the salt of Formula (II) and CSF sampling. […] Many of these biomarkers can also be measured in blood or plasma. The change in values over the time period from pre-treatment to post-treatment are of particular importance. […] Absolute levels at single time points of neurofilament light chain, SNAP-25, synaptotagmin-1, neurogranin, sTREM, and YKL-40 in CSF or blood or plasma are of less value given differences in assay techniques and wide variation in absolute levels within normal subjects and within and across AD subjects. In contrast, absolute levels of Aβ42 and 40 at baseline are useful biomarkers indicating the presence of amyloid pathology as low levels of Aβ42 and 40 at a given time point are consistent with amyloid pathology.

[4] = tested on: amyloid based mice (L/S-APP) or tau based mice (PS19); settings: published mouse studies, cited from earlier work
[5] = Phase I (1b) systemic pharmacokinetics, 600 mg b.i.d. for 10 days; format: in vivo, human; settings: for Cmax: human, plasma, po, 600 mg, 600 mg b.i.d. oral, 8 subjects, read-out: Cmax, systemic, arithmetic mean
Description: as §2

[6] = Phase I (1b) cerebrospinal fluid (CSF) levels; format: in vivo; settings: human, day 10, 600 mg b.i.d. oral, 8 subjects, read-out: Cmax in cerebrospinal fluid (CSF), arithmetic mean
[7] = 600 mg b.i.d. oral, 10 days, 8 subjects
[8] = non-serious AE, 600 mg b.i.d. oral, 10 days

CC[C@H](C)[C@H](N)C(=O)NCCN1CCOCC1 [LM11A-31-BHS, Tris[(2S,3S)-2-amino-3-methyl-N-(2-morpholinoethyl)pentanamide] tetra(monohydrogensulfate), monosulfate]
safety and tolerability in repeated dose schedule ([1]; 600 mg BID up to ten days of treatment): support the safety and tolerability | number of deaths (all causes) ([1]; 600 mg b.i.d. oral, 10 days): 0 | number of deaths resulting from adverse events ([1]; 600 mg b.i.d. oral, 10 days): 0 | serious adverse event Headache, occurrences causally related to treatment/all ([1]; 600 mg b.i.d. oral, 10 days): 0/1 | drug related serious adverse events [1, 7]: 0 drug related adverse events | mild drug related adverse events [1, 7]: 4 drug related adverse events | moderate drug related adverse events [1, 7]: 0 drug related adverse events | severe drug related adverse events [1, 7]: 0 drug related adverse events | Abdominal pain, occurrences (all) [1, 8]: 1 | Arthralgia, occurrences (all) [1, 8]: 3 | Diarrhea, occurrences (all) [1, 8]: 1 | Dry eye, occurrences (all) [1, 8]: 0 | Flatulence, occurrences (all) [1, 8]: 3 | Gamma-glutamyltransferase increased, occurrences (all) [1, 8]: 1 | Headache, occurrences (all) [1, 8]: 7 | Oropharyngeal pain, occurrences (all) [1, 8]: 0 | Polyuria, occurrences (all) [1, 8]: 1 | Presyncope, occurrences (all) [1, 8]: 0 | alterations in physical examination, vital signs and ECG recordings ([1]; phase 1b, 600 mg bid, 10-day period, 8 subjects receiving drug): no clinically relevant alterations | changes in haematological and biochemistry parameters ([1]; phase 1b, 600 mg bid, 10 days, neither clinical relevance nor relationship with the study drug): Minimal changes | drug stability in capsules [2]: good drug stability | ADAS-cog-11, drug dose analysis ([3]; 200 mg bid and 400 mg bid versus placebo): trend for decreased worsening of cognitive scores at both doses | ADAS-cog-13, drug dose analysis ([3]; 200 and 400 mg groups versus placebo): nominal decrease in the increase in score | slowing trend in clinical outcome measures ([3]; at 6 months, phase 2a study): 30-45% | worsening of ADAS-13 and -11 scores, drug versus placebo ([3]; combined drug group, 26 weeks, does not reach statistical significance): trend in slowing the worsening | directionality of slowing progression of worsening in ADAS-cog and MMSE ([3]; drug versus placebo): favorable effect of drug treatment | trends for slower progression of ADAS-cog and MMSE scores, dose comparison ([3]; effects at neither dose reached statistical significance): greater at the 400 compared to 200 mg doses | drug effect across all CSF biomarkers by age group (CSF biomarkers; <72 years versus >=72 years): the drug effect was in general greater in the younger versus older group | effect on biomarkers indicating neuronal degeneration, gliosis and neuro-inflammation (CSF biomarkers; CSF, pre-treatment to post-treatment): ability to slow progression of increase of biomarkers indicating neuronal degeneration, gliosis and neuro-inflammation | CSF YKL40 significant increase seen with placebo, drug dose analysis (YKL-40; 200 and 400 mg doses): no longer present at the 200 and 400 mg doses | drug effect in slowing or inhibiting the pathological glial response (YKL-40), younger (<72 years) versus older (>=72 years) (YKL-40; annual percent change (APC), 6-month trial period): greater than that found in the older group | CSF YKL-40 increase in the drug group (YKL-40; combined drug group, difference between placebo and drug groups p=0.03): This increase was not detected in the drug group | effect on pathological tau, neurites, synapses and spines, astrocytes and microglia ([4]; GFAP and CD68 staining): inhibits levels of pathological tau, loss of neurites, loss of synapses and spines, activation of astrocytes (GFAP staining is less) and activation of microglia (CD68 staining is less) | effect on synaptic function (LTP signal, EPSP slope in hippocampal slices) [4]: corrects synaptic function | linearity of pharmacokinetics ([5]; 600 mg BID during 10 days): linear | Cmax ([5]; day 1): 1270 ng/mL | Cmax ([5]; day 10): 885 ng/mL | Cmax [6]: 56 ng/mL
